According to US20230114728A1 (Venatorx Pharmaceuticals, Inc., priority 2019, published 2023):
In brackets after ≈: the same amount, converted by molar mass.

Tests used:
Assay in all cases: Broth microdilution MIC in iron-depleted CAMHB (IDM)
Type in all cases: cell-based
[1] = test system: P. aeruginosa (ΔmexAB-oprM); details: Pseudomonas aeruginosa, read-out: Minimum Inhibitory Concentration, P. aeruginosa ΔmexAB-OprM
Outline: (§1)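 Iron-limited medium: CAMHB chelated with Chelex 100, cations restored, pH 7.3. CLSI-based microdilution, 2-8×10^5 CFU/mL inoculum, 37° C for 16-20 h (P. aeruginosa) or 20-24 h (A. baumannii). Endpoint is no visible growth.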

P. aeruginosa ATCC 27853 = details: Pseudomonas aeruginosa, ATCC27853, read-out: Minimum Inhibitory Concentration, P. aeruginosa ATCC 27853
Outline: as §1

[2] = test system: A. baumannii IL123 (ABΔ3-ARAEcPore); details: Acinetobacter baumannii, read-out: Minimum Inhibitory Concentration, IL-2123
Outline: as §1

[3] = test system: P. aeruginosa CDC-0090 producing KPC-5, OXA-50, and PAO; details: Pseudomonas aeruginosa, read-out: Minimum Inhibitory Concentration, P. aeruginosa CDC-0090
Outline: as §1

[4] = test system: P. aeruginosa CDC-0095 producing OXA-50, and PAO; details: Pseudomonas aeruginosa, read-out: Minimum Inhibitory Concentration, P. aeruginosa CDC-0095
Outline: as §1

[5] = test system: A. baumannii CDC-0036 OXA-65, and OXA-24; details: Acinetobacter baumannii, read-out: Minimum Inhibitory Concentration, CDC-0036
Outline: as §1

[6] = test system: A. baumannii CDC-0033 producing NDM-1, and OXA-94; details: Acinetobacter baumannii, read-out: Minimum Inhibitory Concentration, CDC-0033
Outline: as §1

P. aeruginosa ATCC 35151 = details: Pseudomonas aeruginosa, ATCC35151; iron-depleted MHB (IDM); hyper-permeable strain; read-out: Minimum Inhibitory Concentration, P. aeruginosa ATCC 35151
Outline: as §1

A. baumannii ATCC 19606 = details: Acinetobacter baumannii, ATCC19606, read-out: Minimum Inhibitory Concentration, ATCC 19606
Outline: as §1

A. baumannii ATCC 17978 = details: Acinetobacter baumannii, ATCC17978, read-out: Minimum Inhibitory Concentration, ATCC 17978
Outline: as §1

[7] = test system: A. baumannii CDC-0083 producing NDM-1, PER-7, OXA-23, and OXA-69; details: Acinetobacter baumannii, read-out: Minimum Inhibitory Concentration, CDC-0083
Outline: as §1

[8] = test system: P. aeruginosa CDC-0054 producing VIM-4, OXA-50, and PAO; details: Pseudomonas aeruginosa, read-out: Minimum Inhibitory Concentration, P. aeruginosa CDC-0054
Outline: as §1

Compound	MIC [1] [µg/mL]	MIC (P. aeruginosa ATCC 27853) [µg/mL]	MIC [2] [µg/mL]	MIC [3] [µg/mL]	MIC [4] [µg/mL]	MIC [5] [µg/mL]	MIC [6] [µg/mL]	MIC (P. aeruginosa ATCC 35151) [µg/mL]	MIC (A. baumannii ATCC 19606) [µg/mL]	MIC (A. baumannii ATCC 17978) [µg/mL]	MIC [7] [µg/mL]	MIC [8] [µg/mL]
O=C(O)c1c(F)ccc2c1OB(O)[C@@H](NC(=O)[C@H](NC(=O)N1CCNC1=O)c1c(F)cc(O)c(O)c1Cl)C2 (single isomer, unassigned) [Example 34]	0.25 (≈ 0.451 µM)	0.5 to 1 (≈ 0.901 to 1.8 µM)	2 to 4 (≈ 3.61 to 7.21 µM)	0.5 to 1 (≈ 0.901 to 1.8 µM)	32 to 64 (≈ 57.7 to 115 µM)	0.5 to 1 (≈ 0.901 to 1.8 µM)	0.5 to 1 (≈ 0.901 to 1.8 µM)	0.25 (≈ 0.451 µM)	0.25 (≈ 0.451 µM)	0.25 (≈ 0.451 µM)	0.5 to 1 (≈ 0.901 to 1.8 µM)	0.5 to 1 (≈ 0.901 to 1.8 µM)
CS(=O)(=O)N1CCN(C(=O)N[C@@H](C(=O)N[C@H]2Cc3ccc(F)c(C(=O)O)c3OB2O)c2c(F)cc(O)c(O)c2Cl)C1=O (single isomer, unassigned) [Example 35]	0.25 (≈ 0.395 µM)	0.5 to 1 (≈ 0.79 to 1.58 µM)	2 to 4 (≈ 3.16 to 6.32 µM)	0.5 to 1 (≈ 0.79 to 1.58 µM)	32 to 64 (≈ 50.6 to 101 µM)	0.5 to 1 (≈ 0.79 to 1.58 µM)	0.5 to 1 (≈ 0.79 to 1.58 µM)	0.25 (≈ 0.395 µM)	0.25 (≈ 0.395 µM)	0.25 (≈ 0.395 µM)	0.25 (≈ 0.395 µM)	0.5 to 1 (≈ 0.79 to 1.58 µM)
NCCN1CCN(C(=O)N[C@@H](C(=O)N[C@H]2Cc3ccc(F)c(C(=O)O)c3OB2O)c2c(F)cc(O)c(O)c2F)C(=O)C1=O (single isomer, unassigned) [Example 40]	0.25 (≈ 0.41 µM)	2 to 4 (≈ 3.28 to 6.57 µM)	8 to 16 (≈ 13.1 to 26.3 µM)	8 to 16 (≈ 13.1 to 26.3 µM)	2 to 4 (≈ 3.28 to 6.57 µM)	2 to 4 (≈ 3.28 to 6.57 µM)	2 to 4 (≈ 3.28 to 6.57 µM)	0.25 (≈ 0.41 µM)	0.5 to 1 (≈ 0.821 to 1.64 µM)	0.25 (≈ 0.41 µM)	0.5 to 1 (≈ 0.821 to 1.64 µM)	8 to 16 (≈ 13.1 to 26.3 µM)
NCCCN1CCN(C(=O)N[C@@H](C(=O)N[C@H]2Cc3ccc(F)c(C(=O)O)c3OB2O)c2c(F)cc(O)c(O)c2F)C(=O)C1=O (single isomer, unassigned) [Example 41]	0.25 (≈ 0.401 µM)	2 to 4 (≈ 3.21 to 6.42 µM)	2 to 4 (≈ 3.21 to 6.42 µM)	0.25 (≈ 0.401 µM)	2 to 4 (≈ 3.21 to 6.42 µM)	2 to 4 (≈ 3.21 to 6.42 µM)	2 to 4 (≈ 3.21 to 6.42 µM)	0.25 (≈ 0.401 µM)	0.5 to 1 (≈ 0.802 to 1.6 µM)	0.25 (≈ 0.401 µM)	0.5 to 1 (≈ 0.802 to 1.6 µM)	2 to 4 (≈ 3.21 to 6.42 µM)
O=C(O)c1ccc(C(NC(=O)c2ccc(O)c(O)c2Cl)C(=O)N[C@H]2Cc3cccc(C(=O)O)c3OB2O)cc1F (stereo partly drawn) [Example 7, (3R)-3-(2-(4-carboxy-3-fluorophenyl)-2-(2-chloro-3,4-dihydroxybenzamido)acetamido)-2-hydroxy-3,4-dihydro-2H-benzo[e][1,2]oxaborinine-8-carboxylic acid]	0.25 (≈ 0.437 µM)	2 to 4 (≈ 3.49 to 6.98 µM)	32 to 64 (≈ 55.9 to 112 µM)	0.5 to 1 (≈ 0.873 to 1.75 µM)	8 to 16 (≈ 14 to 27.9 µM)	32 to 64 (≈ 55.9 to 112 µM)	32 to 64 (≈ 55.9 to 112 µM)	0.25 (≈ 0.437 µM)	32 to 64 (≈ 55.9 to 112 µM)	2 to 4 (≈ 3.49 to 6.98 µM)	32 to 64 (≈ 55.9 to 112 µM)	2 to 4 (≈ 3.49 to 6.98 µM)
O=C(NC(C(=O)N[C@H]1Cc2ccc(F)c(C(=O)O)c2OB1O)c1ncc(O)cc1F)c1ccc(O)c(O)c1Cl (stereo partly drawn) [Example 8, (3R)-3-(2-(2-chloro-3,4-dihydroxybenzamido)-2-(3-fluoro-5-hydroxypyridin-2-yl)acetamido)-7-fluoro-2-hydroxy-3,4-dihydro-2H-benzo[e][1,2]oxaborinine-8-carboxylic acid]	2 to 4 (≈ 3.55 to 7.1 µM)	0.5 to 1 (≈ 0.887 to 1.77 µM)	32 to 64 (≈ 56.8 to 114 µM)	0.25 (≈ 0.444 µM)	2 to 4 (≈ 3.55 to 7.1 µM)	32 to 64 (≈ 56.8 to 114 µM)	32 to 64 (≈ 56.8 to 114 µM)	0.25 (≈ 0.444 µM)	32 to 64 (≈ 56.8 to 114 µM)	2 to 4 (≈ 3.55 to 7.1 µM)	32 to 64 (≈ 56.8 to 114 µM)	2 to 4 (≈ 3.55 to 7.1 µM)
O=C(Nc1ccc(O)c(O)c1Cl)NC(C(=O)N[C@H]1Cc2ccc(F)c(C(=O)O)c2OB1O)c1ncc(O)cc1F (stereo partly drawn) [Example 9, (3R)-3-(2-(3-(2-chloro-3,4-dihydroxyphenyl)ureido)-2-(3-fluoro-5-hydroxypyridin-2-yl)acetamido)-7-fluoro-2-hydroxy-3,4-dihydro-2H-benzo[e][1,2]oxaborinine-8-carboxylic acid]	0.5 to 1 (≈ 0.864 to 1.73 µM)	8 to 16 (≈ 13.8 to 27.6 µM)	32 to 64 (≈ 55.3 to 111 µM)	32 to 64 (≈ 55.3 to 111 µM)	32 to 64 (≈ 55.3 to 111 µM)	32 to 64 (≈ 55.3 to 111 µM)	32 to 64 (≈ 55.3 to 111 µM)	0.25 (≈ 0.432 µM)	32 to 64 (≈ 55.3 to 111 µM)	32 to 64 (≈ 55.3 to 111 µM)	32 to 64 (≈ 55.3 to 111 µM)	32 to 64 (≈ 55.3 to 111 µM)
O=C(NC(C(=O)N[C@H]1Cc2ccc(F)c(C(=O)O)c2OB1O)c1ncc(O)cc1F)c1c(F)cc(O)c(O)c1Cl (stereo partly drawn) [Example 10, (3R)-3-(2-(2-chloro-6-fluoro-3,4-dihydroxybenzamido)-2-(3-fluoro-5-hydroxypyridin-2-yl)acetamido)-7-fluoro-2-hydroxy-3,4-dihydro-2H-benzo[e][1,2]oxaborinine-8-carboxylic acid]	0.5 to 1 (≈ 0.86 to 1.72 µM)	0.5 to 1 (≈ 0.86 to 1.72 µM)	32 to 64 (≈ 55 to 110 µM)	0.5 to 1 (≈ 0.86 to 1.72 µM)	2 to 4 (≈ 3.44 to 6.88 µM)	32 to 64 (≈ 55 to 110 µM)	32 to 64 (≈ 55 to 110 µM)	0.25 (≈ 0.43 µM)	32 to 64 (≈ 55 to 110 µM)	32 to 64 (≈ 55 to 110 µM)	32 to 64 (≈ 55 to 110 µM)	2 to 4 (≈ 3.44 to 6.88 µM)
CCN1CCN(C(=O)NC(C(=O)N[C@H]2Cc3ccc(F)c(C(=O)O)c3OB2O)c2c(F)cc(O)c(O)c2F)C(=O)C1=O (stereo partly drawn) [Example 36, (3R)-3-(2-(2,6-difluoro-3,4-dihydroxyphenyl)-2-(4-ethyl-2,3-dioxopiperazine-1-carboxamido)acetamido)-7-fluoro-2-hydroxy-3,4-dihydro-2H-benzo[e][1,2]oxaborinine-8-carboxylic acid]	0.25 (≈ 0.421 µM)	0.5 to 1 (≈ 0.841 to 1.68 µM)	0.5 to 1 (≈ 0.841 to 1.68 µM)	0.5 to 1 (≈ 0.841 to 1.68 µM)	8 to 16 (≈ 13.5 to 26.9 µM)	0.5 to 1 (≈ 0.841 to 1.68 µM)	0.5 to 1 (≈ 0.841 to 1.68 µM)	0.25 (≈ 0.421 µM)	0.25 (≈ 0.421 µM)	0.25 (≈ 0.421 µM)	0.25 (≈ 0.421 µM)	0.5 to 1 (≈ 0.841 to 1.68 µM)
O=C(O)c1c(F)ccc2c1OB(O)[C@@H](NC(=O)C(NC(=O)N1CCN(CCF)C(=O)C1=O)c1c(F)cc(O)c(O)c1F)C2 (stereo partly drawn) [Example 37, (3R)-3-(2-(2,6-difluoro-3,4-dihydroxyphenyl)-2-(4-(2-fluoroethyl)-2,3-dioxopiperazine-1-carboxamido)acetamido)-7-fluoro-2-hydroxy-3,4-dihydro-2H-benzo[e][1,2]oxaborinine-8-carboxylic acid]	0.25 (≈ 0.408 µM)	2 to 4 (≈ 3.27 to 6.53 µM)	2 to 4 (≈ 3.27 to 6.53 µM)	2 to 4 (≈ 3.27 to 6.53 µM)	8 to 16 (≈ 13.1 to 26.1 µM)	2 to 4 (≈ 3.27 to 6.53 µM)	2 to 4 (≈ 3.27 to 6.53 µM)	0.25 (≈ 0.408 µM)	0.25 (≈ 0.408 µM)	0.25 (≈ 0.408 µM)	0.5 to 1 (≈ 0.817 to 1.63 µM)	2 to 4 (≈ 3.27 to 6.53 µM)
O=C(O)c1c(F)ccc2c1OB(O)[C@@H](NC(=O)C(NC(=O)N1CCN(CCBr)C(=O)C1=O)c1c(F)cc(O)c(O)c1F)C2 (stereo partly drawn) [Example 38, (3R)-3-(2-(4-(2-bromoethyl)-2,3-dioxopiperazine-1-carboxamido)-2-(2,6-difluoro-3,4-dihydroxyphenyl)acetamido)-7-fluoro-2-hydroxy-3,4-dihydro-2H-benzo[e][1,2]oxaborinine-8-carboxylic acid]	0.25 (≈ 0.371 µM)	2 to 4 (≈ 2.97 to 5.94 µM)	2 to 4 (≈ 2.97 to 5.94 µM)	2 to 4 (≈ 2.97 to 5.94 µM)	8 to 16 (≈ 11.9 to 23.8 µM)	2 to 4 (≈ 2.97 to 5.94 µM)	2 to 4 (≈ 2.97 to 5.94 µM)	0.25 (≈ 0.371 µM)	0.25 (≈ 0.371 µM)	0.25 (≈ 0.371 µM)	0.5 to 1 (≈ 0.743 to 1.49 µM)	8 to 16 (≈ 11.9 to 23.8 µM)
CCN1CCN(C(=O)NC(C(=O)N[C@H]2Cc3ccc(F)c(C(=O)O)c3OB2O)c2cc(F)c(O)c(O)c2Cl)C(=O)C1=O (stereo partly drawn) [Example 42, (3R)-3-(2-(2-chloro-5-fluoro-3,4-dihydroxyphenyl)-2-(4-ethyl-2,3-dioxopiperazine-1-carboxamido)acetamido)-7-fluoro-2-hydroxy-3,4-dihydro-2H-benzo[e][1,2]oxaborinine-8-carboxylic acid]	0.25 (≈ 0.409 µM)	0.5 to 1 (≈ 0.819 to 1.64 µM)	0.5 to 1 (≈ 0.819 to 1.64 µM)	0.25 (≈ 0.409 µM)	0.5 to 1 (≈ 0.819 to 1.64 µM)	0.5 to 1 (≈ 0.819 to 1.64 µM)	0.5 to 1 (≈ 0.819 to 1.64 µM)	0.25 (≈ 0.409 µM)	0.25 (≈ 0.409 µM)	0.25 (≈ 0.409 µM)	0.25 (≈ 0.409 µM)	0.5 to 1 (≈ 0.819 to 1.64 µM)
